# Experimental data as given in ChEMBL document CHEMBL5465560, “Selectivity Literature for EUbOPEN Chemogenomic Library” (2024).
# What was measured:
# [1] = target: Serine/threonine-protein kinase PRP4 homolog (Homo sapiens) (UniProt Q13523); assay: Selectivity interaction (KinomeScan (DiscoverX)) EUB0001049a PRPF4B; conditions: at 1 µM
# [2] = target: Mitogen-activated protein kinase 3 (Homo sapiens, UniProt P27361); assay: Selectivity interaction (KinomeScan (DiscoverX)) EUB0000666a MAPK3; conditions: at 10 µM
# [3] = target: Tyrosine-protein kinase BTK (Homo sapiens, UniProt Q06187); assay: Selectivity interaction (KinomeScan (DiscoverX)) EUB0001079a BTK; conditions: at 1 µM
# [4] = target: Serine/threonine-protein kinase 26 (Homo sapiens, UniProt Q9P289); assay: Selectivity interaction (KinomeScan (DiscoverX)) EUB0001079a STK26; conditions: at 1 µM
# [5] = target: eIF-2-alpha kinase GCN2 (Homo sapiens) (UniProt Q9P2K8); assay: Selectivity interaction (ActivX KiNativ screen (kinase selectivity in THP-1 cell lysates)) EUB0000639a EIF2AK4; format: subcellular; conditions: lysate, at 0.01 µM
# [6] = target: Serine/threonine-protein kinase 24 (Homo sapiens) (UniProt Q9Y6E0); assay: Selectivity interaction (KinomeScan (DiscoverX)) EUB0000092b STK24; conditions: at 10 µM
# [7] = target: LIM domain kinase 1 (Homo sapiens) (UniProt P53667); assay: Selectivity interaction (KinomeScan (DiscoverX)) EUB0000045b LIMK1
# [8] = target: T1, Dual specificity mitogen-activated protein kinase kinase 4 (Homo sapiens) (UniProt P45985); assay: Selectivity interaction (KinomeScan (DiscoverX)) EUB0000045b MAP2K4
# T1 sequence (whole entry): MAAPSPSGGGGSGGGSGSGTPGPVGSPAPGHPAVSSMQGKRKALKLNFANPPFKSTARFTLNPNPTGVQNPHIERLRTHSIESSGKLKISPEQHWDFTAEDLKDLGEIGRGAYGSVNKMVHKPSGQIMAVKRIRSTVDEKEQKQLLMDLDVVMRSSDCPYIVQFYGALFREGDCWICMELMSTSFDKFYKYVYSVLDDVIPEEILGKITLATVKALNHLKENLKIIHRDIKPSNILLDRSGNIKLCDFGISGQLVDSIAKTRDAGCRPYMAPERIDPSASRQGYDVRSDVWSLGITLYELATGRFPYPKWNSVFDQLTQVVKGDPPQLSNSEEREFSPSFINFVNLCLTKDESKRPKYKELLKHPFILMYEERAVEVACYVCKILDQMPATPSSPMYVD
# [9] = target: Serine/threonine-protein kinase mTOR (Homo sapiens, UniProt P42345); assay: Selectivity interaction (KinomeScan (DiscoverX)) EUB0000618a MTOR; conditions: at 10 µM
# [10] = target: T2, Muscle, skeletal receptor tyrosine-protein kinase (Homo sapiens) (UniProt O15146); assay: Selectivity interaction (KinomeScan (DiscoverX)) EUB0000618a MUSK; conditions: at 10 µM
# T2 sequence (whole entry): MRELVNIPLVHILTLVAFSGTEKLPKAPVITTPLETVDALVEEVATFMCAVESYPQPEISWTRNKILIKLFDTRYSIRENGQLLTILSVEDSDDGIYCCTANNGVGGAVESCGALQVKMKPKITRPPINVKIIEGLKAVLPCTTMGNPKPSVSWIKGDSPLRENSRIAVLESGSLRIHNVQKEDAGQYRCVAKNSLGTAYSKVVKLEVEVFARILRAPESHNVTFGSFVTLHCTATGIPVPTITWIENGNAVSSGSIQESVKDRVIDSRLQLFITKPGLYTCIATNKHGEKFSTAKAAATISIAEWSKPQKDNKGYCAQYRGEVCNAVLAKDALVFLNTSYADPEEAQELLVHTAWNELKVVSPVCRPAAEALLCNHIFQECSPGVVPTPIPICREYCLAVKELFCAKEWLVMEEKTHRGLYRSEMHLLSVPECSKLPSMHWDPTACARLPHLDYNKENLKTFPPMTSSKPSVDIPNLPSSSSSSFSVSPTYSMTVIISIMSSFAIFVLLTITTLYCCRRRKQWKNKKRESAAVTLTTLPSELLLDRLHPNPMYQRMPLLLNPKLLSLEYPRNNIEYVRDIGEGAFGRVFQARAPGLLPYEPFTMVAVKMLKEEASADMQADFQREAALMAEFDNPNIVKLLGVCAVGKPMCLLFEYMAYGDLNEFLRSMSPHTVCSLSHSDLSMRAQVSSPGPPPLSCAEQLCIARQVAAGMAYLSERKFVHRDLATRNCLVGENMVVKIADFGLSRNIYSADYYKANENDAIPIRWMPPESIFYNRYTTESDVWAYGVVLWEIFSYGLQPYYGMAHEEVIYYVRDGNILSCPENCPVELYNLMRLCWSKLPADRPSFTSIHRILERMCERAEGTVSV
# [11] = target: T3, Serine/threonine-protein kinase Nek9 (Homo sapiens) (UniProt Q8TD19); assay: Selectivity interaction (KinomeScan (DiscoverX)) EUB0001619a NEK9; conditions: at 1 µM
# T3 sequence (whole entry): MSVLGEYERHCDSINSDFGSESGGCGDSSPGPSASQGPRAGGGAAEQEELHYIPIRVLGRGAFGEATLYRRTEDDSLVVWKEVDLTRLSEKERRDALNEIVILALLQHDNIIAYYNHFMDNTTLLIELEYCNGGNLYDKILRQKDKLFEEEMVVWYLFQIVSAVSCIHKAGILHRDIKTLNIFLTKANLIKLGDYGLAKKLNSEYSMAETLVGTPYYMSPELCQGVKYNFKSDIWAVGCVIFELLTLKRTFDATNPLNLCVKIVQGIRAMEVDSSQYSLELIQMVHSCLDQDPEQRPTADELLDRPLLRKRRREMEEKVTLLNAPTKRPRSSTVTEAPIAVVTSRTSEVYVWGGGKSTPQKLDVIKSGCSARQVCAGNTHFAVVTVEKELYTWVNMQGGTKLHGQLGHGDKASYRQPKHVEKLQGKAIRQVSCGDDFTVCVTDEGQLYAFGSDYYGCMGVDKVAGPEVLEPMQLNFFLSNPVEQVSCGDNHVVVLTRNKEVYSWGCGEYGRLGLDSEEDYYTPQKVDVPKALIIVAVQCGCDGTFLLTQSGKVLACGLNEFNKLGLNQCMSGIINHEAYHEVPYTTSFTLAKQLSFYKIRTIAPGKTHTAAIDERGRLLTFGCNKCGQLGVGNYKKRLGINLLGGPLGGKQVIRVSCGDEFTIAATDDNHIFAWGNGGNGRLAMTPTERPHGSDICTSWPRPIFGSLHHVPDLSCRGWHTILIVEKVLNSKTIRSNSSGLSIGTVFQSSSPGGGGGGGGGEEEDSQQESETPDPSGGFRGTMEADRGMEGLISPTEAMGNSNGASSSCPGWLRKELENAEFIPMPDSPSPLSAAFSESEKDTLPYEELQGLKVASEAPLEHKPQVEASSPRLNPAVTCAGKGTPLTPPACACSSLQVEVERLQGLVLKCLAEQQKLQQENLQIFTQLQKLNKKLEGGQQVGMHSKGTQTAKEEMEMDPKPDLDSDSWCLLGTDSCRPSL
# [12] = target: STE20/SPS1-related proline-alanine-rich protein kinase (Homo sapiens) (UniProt Q9UEW8); assay: Selectivity interaction (KinomeScan (DiscoverX)) EUB0001619a STK39; conditions: at 1 µM
# LIM domain kinase 1 (Homo sapiens), sequence (P53667 whole entry, looked up, the tested form may be a part): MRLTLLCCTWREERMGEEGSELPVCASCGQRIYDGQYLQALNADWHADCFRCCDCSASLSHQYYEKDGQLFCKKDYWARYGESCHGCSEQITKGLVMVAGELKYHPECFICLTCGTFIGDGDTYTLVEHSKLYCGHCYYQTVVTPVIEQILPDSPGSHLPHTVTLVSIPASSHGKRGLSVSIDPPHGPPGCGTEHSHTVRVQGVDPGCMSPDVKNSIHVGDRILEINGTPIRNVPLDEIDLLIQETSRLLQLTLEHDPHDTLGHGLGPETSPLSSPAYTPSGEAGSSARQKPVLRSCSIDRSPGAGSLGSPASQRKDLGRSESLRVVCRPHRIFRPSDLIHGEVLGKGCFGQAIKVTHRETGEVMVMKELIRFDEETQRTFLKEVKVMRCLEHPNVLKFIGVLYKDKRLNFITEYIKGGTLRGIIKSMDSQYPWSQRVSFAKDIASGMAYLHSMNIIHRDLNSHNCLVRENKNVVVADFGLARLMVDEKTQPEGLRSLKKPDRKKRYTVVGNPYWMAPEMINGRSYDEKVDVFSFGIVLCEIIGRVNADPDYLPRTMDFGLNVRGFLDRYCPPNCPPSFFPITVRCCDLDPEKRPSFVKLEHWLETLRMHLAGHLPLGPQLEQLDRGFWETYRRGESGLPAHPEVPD
# Serine/threonine-protein kinase PRP4 homolog (Homo sapiens), sequence (Q13523 whole entry): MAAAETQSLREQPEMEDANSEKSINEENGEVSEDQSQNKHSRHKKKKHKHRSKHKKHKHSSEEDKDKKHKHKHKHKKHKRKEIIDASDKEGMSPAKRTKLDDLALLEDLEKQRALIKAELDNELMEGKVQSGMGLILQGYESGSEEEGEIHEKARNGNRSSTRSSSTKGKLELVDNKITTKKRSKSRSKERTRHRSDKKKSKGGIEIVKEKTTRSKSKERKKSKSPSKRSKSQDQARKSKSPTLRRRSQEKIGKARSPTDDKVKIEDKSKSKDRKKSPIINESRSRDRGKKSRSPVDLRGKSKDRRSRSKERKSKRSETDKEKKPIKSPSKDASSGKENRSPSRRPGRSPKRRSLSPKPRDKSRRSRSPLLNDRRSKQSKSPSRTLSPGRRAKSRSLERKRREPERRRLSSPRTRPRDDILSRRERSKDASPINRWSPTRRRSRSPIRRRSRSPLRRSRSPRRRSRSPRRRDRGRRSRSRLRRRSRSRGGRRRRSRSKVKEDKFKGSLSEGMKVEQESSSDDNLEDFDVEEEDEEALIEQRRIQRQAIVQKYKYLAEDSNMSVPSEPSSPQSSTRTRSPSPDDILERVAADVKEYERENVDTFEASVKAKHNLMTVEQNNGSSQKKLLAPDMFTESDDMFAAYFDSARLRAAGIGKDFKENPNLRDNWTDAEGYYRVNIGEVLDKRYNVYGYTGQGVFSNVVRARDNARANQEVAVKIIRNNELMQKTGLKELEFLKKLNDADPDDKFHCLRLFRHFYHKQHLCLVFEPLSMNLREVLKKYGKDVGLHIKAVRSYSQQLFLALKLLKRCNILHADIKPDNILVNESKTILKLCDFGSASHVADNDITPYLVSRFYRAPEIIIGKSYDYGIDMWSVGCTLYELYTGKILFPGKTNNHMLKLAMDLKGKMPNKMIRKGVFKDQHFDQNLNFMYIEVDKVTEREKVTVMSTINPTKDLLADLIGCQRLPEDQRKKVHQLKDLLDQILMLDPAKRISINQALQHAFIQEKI
# eIF-2-alpha kinase GCN2 (Homo sapiens), sequence (Q9P2K8 whole entry): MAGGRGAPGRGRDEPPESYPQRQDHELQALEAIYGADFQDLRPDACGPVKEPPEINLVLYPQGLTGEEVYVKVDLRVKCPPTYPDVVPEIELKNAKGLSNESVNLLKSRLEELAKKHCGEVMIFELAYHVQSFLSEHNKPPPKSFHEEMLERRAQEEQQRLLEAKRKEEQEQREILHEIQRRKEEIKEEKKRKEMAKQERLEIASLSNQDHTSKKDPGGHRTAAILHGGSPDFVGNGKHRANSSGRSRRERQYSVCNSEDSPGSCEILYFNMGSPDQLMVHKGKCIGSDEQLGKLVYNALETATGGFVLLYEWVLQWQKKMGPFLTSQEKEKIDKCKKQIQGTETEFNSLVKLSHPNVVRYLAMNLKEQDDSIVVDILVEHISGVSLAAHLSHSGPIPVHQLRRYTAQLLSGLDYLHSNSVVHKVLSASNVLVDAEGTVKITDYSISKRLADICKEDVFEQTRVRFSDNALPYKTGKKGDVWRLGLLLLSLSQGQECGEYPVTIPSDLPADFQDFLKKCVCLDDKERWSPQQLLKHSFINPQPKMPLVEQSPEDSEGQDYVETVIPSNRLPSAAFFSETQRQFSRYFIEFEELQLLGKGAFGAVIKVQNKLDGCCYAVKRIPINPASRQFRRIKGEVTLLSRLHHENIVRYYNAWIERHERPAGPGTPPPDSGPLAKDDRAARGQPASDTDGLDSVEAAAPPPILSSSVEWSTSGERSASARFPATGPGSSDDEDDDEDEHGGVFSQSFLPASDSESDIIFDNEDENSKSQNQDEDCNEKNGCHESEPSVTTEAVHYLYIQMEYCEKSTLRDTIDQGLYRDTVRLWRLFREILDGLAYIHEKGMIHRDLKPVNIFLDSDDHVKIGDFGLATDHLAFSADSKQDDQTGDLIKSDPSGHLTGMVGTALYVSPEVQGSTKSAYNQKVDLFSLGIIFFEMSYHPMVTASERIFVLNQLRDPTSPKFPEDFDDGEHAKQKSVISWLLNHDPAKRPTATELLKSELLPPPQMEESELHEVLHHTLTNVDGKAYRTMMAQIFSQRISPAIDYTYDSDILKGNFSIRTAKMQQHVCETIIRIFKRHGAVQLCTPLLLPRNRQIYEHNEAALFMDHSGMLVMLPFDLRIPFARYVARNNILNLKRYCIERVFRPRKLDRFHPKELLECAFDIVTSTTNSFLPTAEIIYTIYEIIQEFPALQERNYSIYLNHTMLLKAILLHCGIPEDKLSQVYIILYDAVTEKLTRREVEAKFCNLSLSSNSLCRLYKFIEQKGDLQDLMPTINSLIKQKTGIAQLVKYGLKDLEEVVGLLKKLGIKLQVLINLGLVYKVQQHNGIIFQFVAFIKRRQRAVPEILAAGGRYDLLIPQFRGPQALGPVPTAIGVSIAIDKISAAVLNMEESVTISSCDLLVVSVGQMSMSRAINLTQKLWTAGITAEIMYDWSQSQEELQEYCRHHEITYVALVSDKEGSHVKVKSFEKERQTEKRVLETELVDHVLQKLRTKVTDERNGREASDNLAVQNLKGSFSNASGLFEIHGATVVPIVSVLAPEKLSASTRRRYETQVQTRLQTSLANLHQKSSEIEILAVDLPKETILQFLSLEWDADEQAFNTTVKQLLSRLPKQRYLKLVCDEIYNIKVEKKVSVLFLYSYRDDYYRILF
# Serine/threonine-protein kinase 24 (Homo sapiens), sequence (Q9Y6E0 whole entry, looked up, the tested form may be a part): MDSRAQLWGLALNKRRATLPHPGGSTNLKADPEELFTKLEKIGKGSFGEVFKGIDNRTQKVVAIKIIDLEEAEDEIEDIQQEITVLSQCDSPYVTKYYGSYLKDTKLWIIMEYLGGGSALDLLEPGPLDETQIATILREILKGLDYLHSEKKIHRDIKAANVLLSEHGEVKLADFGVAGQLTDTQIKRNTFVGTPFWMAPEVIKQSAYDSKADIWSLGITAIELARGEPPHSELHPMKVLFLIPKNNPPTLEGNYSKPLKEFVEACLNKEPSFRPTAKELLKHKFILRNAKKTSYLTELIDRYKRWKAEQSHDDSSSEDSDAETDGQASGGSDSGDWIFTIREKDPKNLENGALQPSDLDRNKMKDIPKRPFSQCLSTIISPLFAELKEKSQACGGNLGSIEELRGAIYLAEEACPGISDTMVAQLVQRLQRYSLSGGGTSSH
# Serine/threonine-protein kinase 26, sequence (Q9P289 2-416 limits assumed): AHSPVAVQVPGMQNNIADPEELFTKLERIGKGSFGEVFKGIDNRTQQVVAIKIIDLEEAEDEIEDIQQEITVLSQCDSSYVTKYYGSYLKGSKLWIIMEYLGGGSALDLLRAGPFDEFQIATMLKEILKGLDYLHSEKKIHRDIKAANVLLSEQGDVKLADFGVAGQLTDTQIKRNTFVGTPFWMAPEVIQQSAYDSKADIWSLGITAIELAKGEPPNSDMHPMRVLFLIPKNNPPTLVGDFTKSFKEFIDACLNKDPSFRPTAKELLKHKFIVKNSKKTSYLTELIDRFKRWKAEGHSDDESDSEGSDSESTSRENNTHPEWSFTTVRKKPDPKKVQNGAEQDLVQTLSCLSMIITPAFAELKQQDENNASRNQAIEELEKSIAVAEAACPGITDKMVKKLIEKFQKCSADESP
# Tyrosine-protein kinase BTK, sequence (Q06187 whole entry): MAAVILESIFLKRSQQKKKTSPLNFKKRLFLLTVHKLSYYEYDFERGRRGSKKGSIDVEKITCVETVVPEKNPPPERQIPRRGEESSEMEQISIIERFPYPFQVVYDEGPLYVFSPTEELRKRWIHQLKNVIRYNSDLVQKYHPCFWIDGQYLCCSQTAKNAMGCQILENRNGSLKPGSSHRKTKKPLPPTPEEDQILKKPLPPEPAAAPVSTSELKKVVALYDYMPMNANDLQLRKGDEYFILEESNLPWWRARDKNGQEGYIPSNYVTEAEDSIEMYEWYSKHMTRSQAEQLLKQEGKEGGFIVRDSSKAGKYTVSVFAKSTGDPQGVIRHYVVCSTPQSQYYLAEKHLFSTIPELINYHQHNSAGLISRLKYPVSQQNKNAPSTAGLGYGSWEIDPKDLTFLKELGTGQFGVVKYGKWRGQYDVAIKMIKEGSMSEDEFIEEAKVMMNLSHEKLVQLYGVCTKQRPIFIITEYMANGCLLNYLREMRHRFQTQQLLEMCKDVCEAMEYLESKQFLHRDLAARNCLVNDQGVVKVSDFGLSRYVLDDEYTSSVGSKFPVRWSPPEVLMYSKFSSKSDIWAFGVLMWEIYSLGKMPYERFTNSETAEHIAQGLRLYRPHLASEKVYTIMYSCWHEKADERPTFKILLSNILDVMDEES
structure (smiles),measurement,setting,value
COc1cc(Nc2nc(C)cc(-c3cnn4nc(OC)ccc34)n2)cc(C(F)(F)F)c1,% of control,[1],100%
O=C(NOC[C@H](O)CO)c1ccc(F)c(F)c1Nc1ccc(I)cc1F,% of control,[2],86%
Nc1cnc(N2CCc3cc(S(=O)(=O)Nc4c(F)cc(Cl)cc4F)cc(N4CCCC4=O)c32)nc1 [TP-020n],% of control,[3],100%
same,% of control,[4],83%
CC[C@@H]1[C@H](F)C(=O)N[C@@H]1COc1nccc2cc(C(N)=O)c(OC)cc12 [ZIMLOVISERTIB],% of inhibition,[5],2%
CCC(=O)N1CCN(c2ccc(-n3c(=O)ccc4cnc5ccc(-c6cnc7ccccc7c6)cc5c43)cc2C(F)(F)F)CC1,% of control,[6],100%
C=CC(=O)Nc1cc(-n2c(=O)ccc3cnc4ccc(-c5ccc(NS(C)(=O)=O)cc5)cc4c32)ccc1C,% of control,[7]; at 1 µM,100%
same,% of control,[7]; at 10 µM,95%
same,% of control,[8]; at 1 µM,100%
same,% of control,[8]; at 10 µM,4.9%
O[C@H]1CC[C@H](Nc2ncc3nc(Nc4c(F)cc(F)cc4F)n([C@H]4CCOC4)c3n2)CC1,% of control,[9],68%
same,% of control,[10],63%
N#Cc1cccc(-c2c[nH]c3ncnc(N4CCOCC4)c23)c1,% of control,[11],97%
same,% of control,[12],92%
